Data on two compounds can be found in patent US20220218715A1, “NOVEL USE OF PYRROLO-PYRIDINE DERIVATIVE COMPOUND FOR PREVENTION AND/OR TREATMENT OF CANCER” (VORONOI CO., LTD., priority 2019, published 2022).

In one test the test system is PC-9 lung cancer cells. Briefly: Anticancer effect in mouse model with PC-9 lung cancer cells. In kind it is in vivo, Balb/c Nude Mice. Particulars: PC-9 model; singular treatment with EGFR targeting drug, PO QD (Gefitinib 10 mg/kg, Osimertinib 3 mg/kg). Here is the method: (§1) The PC-9 cell line was purchased from NanJing Cobioer Biological Technology Co., Ltd. Cells were kept in RPMI-1640 containing 10% FBS, and cultured in a 37° C. humidified cell culture incubator at 5% C2. All animal experiments were carried out according to the Animal Use and Management Guidelines of Shanghai Medicilon Inc. Under sterile conditions, 2×10^6 PC-9 tumor cells (0.1 mL, cell:Matrigel®=1:1) was administered to the right waist of each animal by S.C. administration. Tumor size and animal body weight were measured twice weekly, and clinical symptoms were recorded daily. The mice will be administered individually according to most recent body weight. The tumors were measured using calipers using two measurements, length (a) and width (b). The volume of the tumors was calculated individually as follows, from the two measured diameters of the tumors: tumor volume (mm^3)=(a×b^2)/2.

In test [1] the test system is NCI-H1975 lung cancer cells. The test can be described thus: Anticancer effect in mouse model with NCI-H1975 lung cancer cells. Particulars: singular treatment with Osimertinib 3.5 mg/kg PO QD. Format: in vivo, Balb/c Nude Mice. As to the method: as §1, with “NCI-H1975” for “PC-9”, “the Institute of Biochemistry and Cell Biology (Shanghai Institutes for” for “NanJing Cobioer”, “Sciences, CAS).” for “Technology Co., Ltd.”, “CO2.” for “C2.”, “Under sterile conditions, 2×10^6 PC-9 tumor cells (0.1 mL, cell:Matrigel®=1:1) was administered to the right waist of each animal by S.C. administration.” left out

As to `COc1cc2ncnc(Nc3ccc(F)c(Cl)c3)c2cc1OCCCN1CCOCC1` [Gefitinib, reference compound], the “cancer cell regrowth during treatment” value with PC-9 lung cancer cells is given as “early regrowth of cancer cells was observed”.

As for `C=CC(=O)Nc1cc(Nc2nccc(-c3cn(C)c4ccccc34)n2)c(OC)cc1N(C)CCN(C)C` [Osimertinib, reference compound], the “cancer cell regrowth during treatment” value (in test [1]; with PC-9 lung cancer cells) was “early regrowth of cancer cells was observed” in each case.
